Drawing on patent publication US20250296939A1, “BENZOTHIOPHENE COMPOUND” (Kyoto Pharmaceutical Industries, Ltd., priority 2022, published 2025), this text covers IC50 and fold induction for 21 compounds.

Test [1] addresses GST-fused human Keap1 (amino acid residues: 325-642) protein (Homo sapiens (Human), UniProt Q14145). Nature of the test: FP assay (in vitro): inhibition of binding between Nrf2 and Keap1 by fluorescence polarization. To be noted: 20 nM GST-fused human Keap1, 10 nM FITC-labeled Nrf2 peptide, 2 hr at room temperature. For orientation: In fluorescence polarisation assays a small probe gives low polarisation when free and higher when bound to something large.

Test [2] has as its system NQO1 activity in Hepa1c1c7 cells. Kind of test: NAD(P)H: quinone oxidoreductase-1 (NQO1) enzyme induction assay (in vitro). Format: cell-based, mouse. Particulars: Mus musculus, Hepa-1c1c7, NQO1 activity upon addition of 400 nM of test compound, about 48 hr, ratio from the base without the compound. The gist of the method:
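Mouse Hepa1c1c7 hepatoma cells were treated with 400 nM compound for about 48 h, then lysed with digitonin/EDTA. NQO1 activity was measured as menadione-mediated MTT reduction with a G6P/G6PDH NADPH-regenerating system, stopped with dicoumarol, and read at A610. Values are the activity ratio versus untreated base wells.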

Chain of GST-fused human Keap1 (amino acid residues: 325-642) protein (Q14145 325-624 limits assumed): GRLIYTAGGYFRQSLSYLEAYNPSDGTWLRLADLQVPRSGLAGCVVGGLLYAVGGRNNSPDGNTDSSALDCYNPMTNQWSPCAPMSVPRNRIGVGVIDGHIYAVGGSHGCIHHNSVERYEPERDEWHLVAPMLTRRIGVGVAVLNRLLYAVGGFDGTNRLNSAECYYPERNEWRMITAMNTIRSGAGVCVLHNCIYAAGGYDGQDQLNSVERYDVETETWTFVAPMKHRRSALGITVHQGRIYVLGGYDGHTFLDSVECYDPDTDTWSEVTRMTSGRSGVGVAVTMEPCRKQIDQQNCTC

Compound `CC[C@@H]1Cc2cccnc2CN(Cc2cc(C(CC(=O)O)c3ccc4c(nnn4C)c3C)cc3ccsc23)C1` (stereo partly drawn) [Example 63, 3-(1,4-Dimethyl-1H-benzotriazol-5-yl)-3-(7-{[(6R)-6-ethyl-5,6,7,9-tetrahydro-8H-pyrido[2,3-c]azepin-8-yl]methyl}-1-benzothiophen-5-yl)propanoic acid] registered an IC50 in test [1] of 30 to 300 nM. Further, the fold induction at 0.4 µM in test [2] was in the range of 3 to 5.

As for `CC[C@H]1Cc2cccnc2CN(Cc2cc(C(CC(=O)O)c3ccc4c(nnn4C)c3C)cc3ccsc23)C1` (stereo partly drawn) [Example 64, 3-(1,4-Dimethyl-1H-benzotriazol-5-yl)-3-(7-{[(6S)-6-ethyl-5,6,7,9-tetrahydro-8H-pyrido[2,3-c]azepin-8-yl]methyl}-1-benzothiophen-5-yl)propanoic acid], the IC50 in test [1] lay within 30 to 300 nM. In addition, the fold induction at 0.4 µM in test [2] was more than 5.

For the compound `CC[C@@H]1CN(Cc2cc([C@@H](CC(=O)O)c3cnc4c(nnn4C)c3C)cc3ccsc23)Cc2nc(N)ccc2O1` [Example 67, (3R)-3-(7-{[(2R)-7-Amino-2-ethyl-2,3-dihydropyrido[2,3-f][1,4]oxazepin-4(5H)-yl]methyl}-1-benzothiophen-5-yl)-3-(3,7-dimethyl-3H-[1,2,3]triazolo[4,5-b]pyridin-6-yl)propanoic acid], in test [1], the IC50 is 10 to 30 nM. In test [2], the fold induction at 0.4 µM was more than 5.

In turn, `CC[C@@H]1CN(Cc2cc([C@H](CC(=O)O)c3cnc4c(nnn4C)c3C)cc3ccsc23)Cc2nc(N)ccc2O1` [Example 68, (3S)-3-(7-{[(2R)-7-Amino-2-ethyl-2,3-dihydropyrido[2,3-f][1,4]oxazepin-4(5H)-yl]methyl}-1-benzothiophen-5-yl)-3-(3,7-dimethyl-3H-[1,2,3]triazolo[4,5-b]pyridin-6-yl)propanoic acid] displayed an IC50 in test [1] of 10 to 30 nM. In addition, the fold induction at 0.4 µM in test [2] was more than 5.

On to `CC[C@H]1Cc2cccnc2CN(Cc2cc([C@@H](CC(=O)O)c3ccc4c(nnn4C)c3C)cc3ccsc23)C1` [Example 69, (3R)-3-(1,4-Dimethyl-1H-benzotriazol-5-yl)-3-(7-{[(6S)-6-ethyl-5,6,7,9-tetrahydro-8H-pyrido[2,3-c]azepin-8-yl]methyl}-1-benzothiophen-5-yl)propanoic acid], for which the IC50 in test [1] fell in the range of 10 to 30 nM. Moreover, in test [2], the fold induction at 0.4 µM was more than 5.

Turning to `CC[C@H]1Cc2cccnc2CN(Cc2cc([C@H](CC(=O)O)c3ccc4c(nnn4C)c3C)cc3ccsc23)C1` [Example 70, (3S)-3-(1,4-Dimethyl-1H-benzotriazol-5-yl)-3-(7-{[(6S)-6-ethyl-5,6,7,9-tetrahydro-8H-pyrido[2,3-c]azepin-8-yl]methyl}-1-benzothiophen-5-yl)propanoic acid], the IC50 in test [1] is not above 10 nM. Further, the fold induction at 0.4 µM in test [2] was more than 5.

Compound `Cc1c(C(CC(=O)O)c2cc(CN3Cc4nc(N)ccc4OC4(CC4)C3)c3sccc3c2)cnc2c1nnn2C` (stereo not drawn) [Example 71, 3-{7-[(7′-Amino-3′H-spiro[cyclopropane-1,2′-pyrido[2,3-f][1,4]oxazepin]-4′ (5′H)-yl)methyl]-1-benzothiophen-5-yl}-3-(3,7-dimethyl-3H-[1,2,3]triazolo[4,5-b]pyridin-6-yl)propanoic acid] registered an IC50 in test [1] of 10 to 30 nM. Moreover, the fold induction at 0.4 µM in test [2] is more than 5.

In the case of `CC[C@H]1Cc2ccc(O)nc2CN(Cc2cc([C@@H](CC(=O)O)c3ccc4c(nnn4C)c3C)cc3ccsc23)C1` [Example 72, (3R)-3-(1,4-Dimethyl-1H-benzotriazol-5-yl)-3-(7-{[(6S)-6-ethyl-2-hydroxy-5,6,7,9-tetrahydro-8H-pyrido[2,3-c]azepin-8-yl]methyl}-1-benzothiophen-5-yl)propanoic acid], the 50% inhibitory concentration (IC50) in test [1] fell in the range of 30 to 300 nM. Besides, the fold induction at 0.4 µM in test [2] was more than 5.

In test [1], `CC[C@H]1Cc2ccc(O)nc2CN(Cc2cc([C@H](CC(=O)O)c3ccc4c(nnn4C)c3C)cc3ccsc23)C1` [Example 73, (3S)-3-(1,4-Dimethyl-1H-benzotriazol-5-yl)-3-(7-{[(6S)-6-ethyl-2-hydroxy-5,6,7,9-tetrahydro-8H-pyrido[2,3-c]azepin-8-yl]methyl}-1-benzothiophen-5-yl)propanoic acid] showed an IC50 of 10 to 30 nM. Further, in test [2], the fold induction at 0.4 µM is more than 5.

`CC[C@@H]1CN(Cc2cc(C(CC(=O)O)c3ccc4c(nnn4C)c3C)cc3ccsc23)Cc2nc(F)c(O)cc2O1` (stereo partly drawn) [Example 74, 3-(1,4-Dimethyl-1H-benzotriazol-5-yl)-3-(7-{[(2R)-2-ethyl-7-fluoro-8-hydroxy-2,3-dihydropyrido[2,3-f][1,4]oxazepin-4(5H)-yl]methyl}-1-benzothiophen-5-yl)propanoic acid] yielded an IC50 in test [1] of 10 to 30 nM. The fold induction at 0.4 µM in test [2] is more than 5.

Regarding `CC[C@H]1Cc2cccnc2CN(Cc2cc([C@@H](CC(=O)O)c3cnc4c(nnn4C)c3C)cc3ccsc23)C1` [Example 75, (3R)-3-(3,7-Dimethyl-3H-[1,2,3]triazolo[4,5-b]pyridin-6-yl)-3-(7-{[(6S)-6-ethyl-5,6,7,9-tetrahydro-8H-pyrido[2,3-c]azepin-8-yl]methyl}-1-benzothiophen-5-yl)propanoic acid], the IC50 in test [1] lay within 10 to 30 nM. Further, the fold induction at 0.4 µM in test [2] was more than 5.

In test [1], `CC[C@H]1Cc2cccnc2CN(Cc2cc([C@H](CC(=O)O)c3cnc4c(nnn4C)c3C)cc3ccsc23)C1` [Example 76, (3S)-3-(3,7-Dimethyl-3H-[1,2,3]triazolo[4,5-b]pyridin-6-yl)-3-(7-{[(6S)-6-ethyl-5,6,7,9-tetrahydro-8H-pyrido[2,3-c]azepin-8-yl]methyl}-1-benzothiophen-5-yl)propanoic acid] had an IC50 of 10 to 30 nM. Besides, the fold induction at 0.4 µM in test [2] was more than 5.

`CC[C@@H]1CN(Cc2cc([C@@H](CC(=O)O)c3ccc4c(nnn4C)c3C)cc3ccsc23)Cc2nc(NC)ccc2O1` [Example 77, (3R)-3-(1,4-Dimethyl-1H-benzotriazol-5-yl)-3-(7-{[(2R)-2-ethyl-7-(methylamino)-2,3-dihydropyrido[2,3-f][1,4]oxazepin-4(5H)-yl]methyl}-1-benzothiophen-5-yl)propanoic acid] yielded an IC50 in test [1] not above 10 nM. Further, the fold induction at 0.4 µM in test [2] is more than 5.

In test [1], `CC[C@@H]1CN(Cc2cc([C@H](CC(=O)O)c3ccc4c(nnn4C)c3C)cc3ccsc23)Cc2nc(NC)ccc2O1` [Example 78, (3S)-3-(1,4-Dimethyl-1H-benzotriazol-5-yl)-3-(7-{[(2R)-2-ethyl-7-(methylamino)-2,3-dihydropyrido[2,3-f][1,4]oxazepin-4(5H)-yl]methyl}-1-benzothiophen-5-yl)propanoic acid] showed a half-maximal inhibitory concentration (IC50) not above 10 nM. In test [2], the fold induction at 0.4 µM fell in the range of 3 to 5.

As to `Cc1c([C@@H](CC(=O)O)c2cc(CN3Cc4cnc(O)cc4OC4(CC4)C3)c3sccc3c2)ccc2c1nnn2C` [Example 79, (3S)-3-(1,4-Dimethyl-1H-benzotriazol-5-yl)-3-{7-[(8′-hydroxy-3′H-spiro[cyclopropane-1,2′-pyrido[3,4-f][1,4]oxazepin]-4′ (5′H)-yl)methyl]-1-benzothiophen-5-yl}propanoic acid], in test [1], the concentration for half-maximal inhibition (IC50) fell in the range of 10 to 30 nM. The fold induction at 0.4 µM in test [2] was 3 to 5.

`CC[C@H]1Cc2ccc(O)nc2CN(Cc2cc([C@@H](CC(=O)O)c3cnc4c(nnn4C)c3C)cc3ccsc23)C1` [Example 80, (3R)-3-(3,7-Dimethyl-3H-[1,2,3]triazolo[4,5-b]pyridin-6-yl)-3-(7-{[(6S)-6-ethyl-2-hydroxy-5,6,7,9-tetrahydro-8H-pyrido[2,3-c]azepin-8-yl]methyl}-1-benzothiophen-5-yl)propanoic acid] displayed a half-maximal inhibitory concentration (IC50) in test [1] of 10 to 30 nM. Also, in test [2], the fold induction at 0.4 µM is more than 5.

For `CC[C@H]1Cc2ccc(O)nc2CN(Cc2cc([C@H](CC(=O)O)c3cnc4c(nnn4C)c3C)cc3ccsc23)C1` [Example 81, (3S)-3-(3,7-Dimethyl-3H-[1,2,3]triazolo[4,5-b]pyridin-6-yl)-3-(7-{[(6S)-6-ethyl-2-hydroxy-5,6,7,9-tetrahydro-8H-pyrido[2,3-c]azepin-8-yl]methyl}-1-benzothiophen-5-yl)propanoic acid], the IC50 in test [1] fell in the range of 10 to 30 nM. The fold induction at 0.4 µM in test [2] was more than 5.

In test [1], `Cc1c([C@@H](CC(=O)O)c2cc(CN3Cc4c(ccnc4O)OC4(CC4)C3)c3sccc3c2)ccc2c1nnn2C` [Example 82, (3S)-3-(1,4-Dimethyl-1H-benzotriazol-5-yl)-3-{7-[(6′-hydroxy-3′H-spiro[cyclopropane-1,2′-pyrido[3,4-f][1,4]oxazepin]-4′(5′H)-yl)methyl]-1-benzothiophen-5-yl}propanoic acid] yielded an IC50 of 10 to 30 nM. Also, the fold induction at 0.4 µM in test [2] is 3 to 5.

`CC[C@H]1Cc2ccc(N)nc2CN(Cc2cc([C@@H](CC(=O)O)c3ccc4c(nnn4C)c3C)cc3ccsc23)C1` [Example 83, (3R)-3-(7-{[(6S)-2-Amino-6-ethyl-5,6,7,9-tetrahydro-8H-pyrido[2,3-c]azepin-8-yl]methyl}-1-benzothiophen-5-yl)-3-(1,4-dimethyl-1H-benzotriazol-5-yl)propanoic acid] registered a half-maximal inhibitory concentration (IC50) in test [1] not above 10 nM. Further, the fold induction at 0.4 µM in test [2] is more than 5.

Consider `CC[C@H]1Cc2ccc(O)nc2CN(Cc2cc([C@H](CC(=O)O)c3ccc4c(nnn4C)c3Cl)cc3ccsc23)C1` [Example 84, (3S)-3-(4-Chloro-1-methyl-1H-benzotriazol-5-yl)-3-(7-{[(6S)-6-ethyl-2-hydroxy-5,6,7,9-tetrahydro-8H-pyrido[2,3-c]azepin-8-yl]methyl}-1-benzothiophen-5-yl)propanoic acid], for which, in test [1], the IC50 is not above 10 nM. For the same compound, the fold induction at 0.4 µM in test [2] is more than 5.

As for `CC[C@H]1Cc2ccc(O)nc2CN(Cc2cc([C@H](CC(=O)O)c3cc(Cl)c4c(nnn4C)c3C)cc3ccsc23)C1` [Example 85, (3S)-3-(7-Chloro-1,4-dimethyl-1H-benzotriazol-5-yl)-3-(7-{[(6S)-6-ethyl-2-hydroxy-5,6,7,9-tetrahydro-8H-pyrido[2,3-c]azepin-8-yl]methyl}-1-benzothiophen-5-yl)propanoic acid], the 50% inhibitory concentration (IC50) in test [1] was not above 10 nM. In test [2], the fold induction at 0.4 µM was more than 5.

For orientation: IC50 means the concentration that gives 50% inhibition. A low value points to higher potency. What is called fold induction is the signal under treatment as a multiple of the control signal.
